Laboratory results as given in the supplement of paper PMC10307832.

Each cell line was assayed with C[C@]1(c2nc3c(C(N)=O)cccc3[nH]2)CCCN1 [Veliparib] + NC(=O)Nc1cc(-c2cccc(F)c2)sc1C(=O)N[C@H]1CCCNC1 [AZD7762] (partner 0.2 µM) (assay: relative viability (nuclei count vs DMSO), 5 days (fraction); higher = more cells survive). Details: first compound 0.02 µM.
How it was run: (§1)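 Lung cancer cell lines were seeded in 1536-well plates and dosed by pin tool the next day, with either a single drug or a fixed anchor-drug dose combined with five library-drug doses (not always all listed) spaced in √10 steps. Five days later, one step fixed the cells and stained their nuclei (final 0.05% Triton X-100, 1% formaldehyde, 1 ug/ml Hoechst), and nuclei were counted on 4× images. Relative viability is the nuclei count in treated wells divided by the count in vehicle wells, and each value is the median of duplicate plates.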

Cell Line	relative viability
NCI-H2342	0.392
LU99A	0.403
NCI-H1975	0.765
H3255	1
NCI-H2405	0.772
NCI-H1437	0.996
NCI-H596	1.34
HCC-15	1.24
NCI-H460	0.635
EMC-BAC-2	1.15
NCI-H1395	0.454
NCI-H1648	0.762
NCI-H522	0.805
NCI-H1703	0.0963
CAL-12T	0.668

Same assay, conditions: first compound 0.06325 µM

Cell Line	relative viability
NCI-H2342	0.543
LU99A	0.385
NCI-H1975	0.639
H3255	0.893
NCI-H1734	0.529
NCI-H1437	1.07
ABC-1	0.778
NCI-H596	1.22
HCC-15	1.13
NCI-H460	0.469
EMC-BAC-2	1.02
NCI-H1395	0.359
SW 900	0.575
NCI-H522	0.896
NCI-H1703	0.11
CAL-12T	0.591

Same assay, conditions: first compound 0.2 µM

Cell Line	relative viability
NCI-H2342	0.417
LU99A	0.322
NCI-H1975	0.737
H3255	0.816
NCI-H2405	0.81
NCI-H1734	0.529
NCI-H1437	1.17
ABC-1	0.771
NCI-H596	1.17
HCC-15	1.11
NCI-H460	0.602
EMC-BAC-2	1.12
NCI-H1395	0.411
SW 900	0.526
NCI-H522	0.846
NCI-H1703	0.112
CAL-12T	0.661

Same assay, conditions: first compound 0.6325 µM

Cell Line	relative viability
NCI-H2342	0.471
LU99A	0.283
NCI-H1975	0.736
H3255	0.756
NCI-H2405	0.734
NCI-H1734	0.536
NCI-H1437	1.13
ABC-1	0.752
NCI-H596	1.13
HCC-15	1.37
NCI-H460	0.583
EMC-BAC-2	1.09
NCI-H1395	0.405
NCI-H1648	0.711
SW 900	0.59
NCI-H522	0.87
NCI-H1703	0.138
CAL-12T	0.627

Same assay, conditions: first compound 2 µM

Cell Line	relative viability
NCI-H2342	0.405
LU99A	0.317
NCI-H1975	0.61
H3255	0.857
NCI-H2405	0.738
NCI-H1734	0.642
NCI-H1437	1.09
ABC-1	0.716
NCI-H596	0.952
HCC-15	1.28
NCI-H460	0.516
EMC-BAC-2	1.17
NCI-H1395	0.405
NCI-H1648	0.685
SW 900	0.591
NCI-H522	0.873
NCI-H1703	0.13
CAL-12T	0.741

What follows are cell lines tested with C[C@]1(c2nc3c(C(N)=O)cccc3[nH]2)CCCN1 [Veliparib] + Nc1ncn([C@H]2C[C@H](O)[C@@H](CO)O2)c(=O)n1 [Decitabine] (partner 2 µM) in the same assay as above. Details: first compound 0.02 µM.
How it was run: as §1

Cell Line	relative viability
NCI-H2342	0.729
LU99A	1.01
NCI-H1975	0.392
H3255	0.615
NCI-H2023	0.215
NCI-H2405	0.742
SK-LU-1	0.634
NCI-H1437	0.606
NCI-H596	1.14
HCC-15	0.572
NCI-H460	0.407
EMC-BAC-2	0.997
NCI-H2009	0.344
COR-L 105	0.634
NCI-H1395	0.704
NCI-H520	0.427
NCI-H1648	0.487
NCI-H1650	0.256
A549	0.202
COR-L23	0.406
NCI-H522	0.663
UMC-11	0.568
SK-MES-1	0.364
NCI-H661	0.555

Same assay, conditions: first compound 0.06325 µM

Cell Line	relative viability
NCI-H2342	0.758
LU99A	0.875
NCI-H1975	0.447
H3255	0.538
NCI-H2023	0.152
SK-LU-1	0.663
NCI-H1734	0.374
NCI-H1437	0.526
NCI-H596	1
HCC-15	0.56
NCI-H460	0.255
NCI-H2009	0.37
COR-L 105	0.66
NCI-H1395	0.626
NCI-H520	0.404
NCI-H1650	0.326
A549	0.137
SW 900	0.377
COR-L23	0.315
NCI-H522	0.561
UMC-11	0.568
SK-MES-1	0.293
NCI-H661	0.545

Same assay, conditions: first compound 0.2 µM

Cell Line	relative viability
NCI-H2342	0.679
LU99A	0.932
NCI-H1975	0.362
H3255	0.713
NCI-H2023	0.172
NCI-H2405	0.653
SK-LU-1	0.58
NCI-H1734	0.389
NCI-H1437	0.464
ABC-1	0.82
NCI-H596	0.969
HCC-15	0.589
NCI-H460	0.203
EMC-BAC-2	0.936
NCI-H2009	0.366
COR-L 105	0.744
NCI-H1395	0.686
NCI-H520	0.414
NCI-H1650	0.433
A549	0.0868
SW 900	0.396
COR-L23	0.255
NCI-H522	0.547
UMC-11	0.476
SK-MES-1	0.341
NCI-H661	0.481

Same assay, conditions: first compound 0.6325 µM

Cell Line	relative viability
NCI-H2342	0.718
LU99A	0.825
NCI-H1975	0.307
H3255	0.567
NCI-H2023	0.141
NCI-H2405	0.663
SK-LU-1	0.583
NCI-H1734	0.33
NCI-H1437	0.533
ABC-1	1.07
NCI-H596	0.814
HCC-15	0.562
NCI-H460	0.212
EMC-BAC-2	0.874
NCI-H2009	0.329
COR-L 105	0.59
NCI-H1395	0.606
NCI-H520	0.375
NCI-H1648	0.529
NCI-H1650	0.43
A549	0.106
SW 900	0.427
COR-L23	0.287
NCI-H522	0.622
UMC-11	0.444
SK-MES-1	0.324
NCI-H661	0.424

Same assay, conditions: first compound 2 µM

Cell Line	relative viability
NCI-H2342	0.725
LU99A	0.866
NCI-H1975	0.328
H3255	0.589
NCI-H2023	0.13
NCI-H2405	0.693
SK-LU-1	0.485
NCI-H1734	0.35
NCI-H1437	0.497
ABC-1	1.06
NCI-H596	0.965
HCC-15	0.502
NCI-H460	0.132
EMC-BAC-2	0.984
NCI-H2009	0.361
COR-L 105	0.599
NCI-H1395	0.652
NCI-H520	0.35
NCI-H1648	0.424
NCI-H1650	0.308
A549	0.0789
SW 900	0.388
COR-L23	0.289
NCI-H522	0.678
UMC-11	0.389
SK-MES-1	0.337
NCI-H661	0.443

These cell lines were tested with COC1=CC=C(C=C1)CN2C=CC3=C2C=C(C=C3)C(=O)NO + O=C(c1cc(Cc2n[nH]c(=O)c3ccccc23)ccc1F)N1CCN(C(=O)C2CC2)CC1 [Olaparib] (partner 8 µM) in the same assay as above. Details: first compound 0.08 µM.
How it was run: as §1

Cell Line	relative viability
NCI-H2342	0.437
NCI-H1975	0.77
H3255	0.549
NCI-H2023	0.453
NCI-H2405	0.649
SK-LU-1	0.436
NCI-H1437	0.603
NCI-H596	0.66
HCC-15	0.635
NCI-H460	0.426
EMC-BAC-2	0.315
IA-LM	0.755
NCI-H2009	0.682
COR-L 105	0.558
NCI-H520	0.342
NCI-H1648	0.81
NCI-H1299	1.04
NCI-H1650	0.753
SW 900	0.759
COR-L23	0.256
UMC-11	0.373
NCI-H2228	0.686
SK-MES-1	0.788
CAL-12T	0.674

Same assay, conditions: first compound 0.253 µM

Cell Line	relative viability
NCI-H2342	0.449
LU99A	0.277
NCI-H1975	0.815
H3255	0.482
NCI-H2023	0.475
SK-LU-1	0.443
NCI-H1734	0.325
NCI-H1437	0.635
ABC-1	0.745
NCI-H596	0.778
HCC-15	0.71
NCI-H460	0.457
IA-LM	0.846
NCI-H2009	0.694
COR-L 105	0.743
NCI-H1395	0.419
NCI-H520	0.362
NCI-H1648	0.725
EBC-1	0.656
NCI-H1299	0.98
NCI-H1650	0.813
A549	0.38
SW 900	0.956
COR-L23	0.382
NCI-H522	0.669
